Assay results published in patent US8349827B2, “Substituted dipyrido-pyrimido-diazepine and benzo-pyrido-pyrimido compounds” (ArQule, Inc., priority 2009, dated 2013).

Columns and labels:
PACA-2 = assay: MTS assay, PACA-2 cells; format: cell-based; conditions: 72 hours
Experimental: (§1) Cells were maintained at 37° C., 5% CO2 in DMEM media supplemented with 1% fetal bovine serum, penicillin/streptomycin and fungizone (Invitrogen). Cells were seeded into 96-well tissue culture plates at 3000 per well and cultured at 37° C. for 18 hours. Test compounds were dissolved and diluted to 300× in DMSO then diluted 1:40 in DMEM. Cells were incubated with test compounds for 72 hours followed by incubation with tetrazolium compound (3-(4,5-dimethylthiazol-2-yl)-5-(3-carboxymethoxyphenyl)-2-(4-sulfophenyl)-2H-tetrazolium, inner salt; MTS) and the electron coupling reagent, phenazine methosulfate (PMS) for 4 hours. […] The ability of compounds to inhibit cell growth in this assay is correlated with the reduction of dehydrogenase enzyme activity found in metabolically active cells. The measurement of the absorbance of the formazan was assessed using an ENVISION™ (Perkin Elmer) microplate reader at 492 nm. The calculated IC50 value is the concentration of the test compound that causes a 50% decrease in the absorbance.

MDA-MB-231 = assay: MTS assay, MDA-MB-231 cells; format: cell-based; conditions: Homo sapiens, 72 hours
Experimental: as §1

NCI-H1299 = assay: MTS assay, NCI-H1299 cells; format: cell-based; conditions: Homo sapiens, 72 hours
Experimental: as §1

ABL = ABL (Homo sapiens, UniProt P00519); assay: ABL Kinase Activity Assay (Elisa), ABL; format: biochemical; conditions: ATP 100 μM, read-out: Abl Enzymetic assay (Elisa) % inhibition
Experimental: (§2) ABL Kinase Activity Assay
(§3) The disclosed compounds were assayed for their ability to inhibit the activity of ABL kinase. Nunc Maxisorb plates were coated with streptavidin by overnight incubation with 100 μL per well of 1 μg/ml streptavidin in DPBS. Prior to the experiment, the plates were washed with TBST (3×200 μL) and blocked for at least 3 hours by adding 150 μL of 5% BSA/TBST. The plates were washed with TBST (3×200 μL/well) and left dry immediately before the capture step.
(§4) The disclosed test compounds and controls (Gleevec) were prepared using the following assay buffer@10× desired final concentration (50 mM Tris pH 7.0, 0.02 mg/ml BSA, 10 mM MgCl2, 0.1 mM Na3VO4, 1 mM EGTA, 0.01% NP-40, 1 mM DTT in 10% glycerol/water). In a reaction plate, 5 μl test article (or control) and 30 μl ABL or ABL T315I (0.089 nM final concentration, in the above buffer) were added rapidly. The plate was incubated for 20 minutes. To the reaction plate was added ATP (100 μM final concentration) and AblTide (128 nM final concentration) in a volume of 15 μl. The plate was incubated at room temperature for one hour.
(§5) From the reaction plate, 40 μl was transferred to the streptavidin coated plate. The capture plate was incubated at room temperature for 30 minutes, then washed 3× with TBST. To the capture plate was added 100 μL/well of cell signaling anti-phospho tyrosine at a dilution of 1:3000 in 2% BSA/TBST. The plate was incubated for two hours at room temperature then washed 3× with TBST. To the capture plate was added 100 μL/well of alkaline phosphatase tagged goat anti mouse antibody at a dilution of 1:4000 in 2% BSA/TBST. The plate was incubated for one hour at room temperature then washed 3× with TBST.
(§6) The fluorescent readout was initiated by the addition of 100 μl/well of Attophos reagent (6 mg/10 mL). The reading was done on the Perkin Elmer Envision system.

KATO III = assay: MTS assay, KATO III cells; format: cell-based; conditions: Homo sapiens, 72 hours
Experimental: as §1

DLD-1 = assay: MTS assay, DLD-1 cells; format: cell-based; conditions: Homo sapiens, 72 hours
Experimental: as §1

ABL T315I = ABL T315I (Homo sapiens, UniProt P00519, T315I); assay: ABL Kinase Activity Assay (Elisa), ABL T315I; format: biochemical; conditions: ATP 100 μM, read-out: Abl(T315I) Enzymetic assay (Elisa) % inhibition
Experimental: as §2, §3, §4, §5, §6

PC-3 = assay: MTS assay, PC-3 cells; format: cell-based; conditions: Homo sapiens, 72 hours
Experimental: as §1

Compound	inhibition at 10 µM (ABL) [%]	inhibition at 10 µM (ABL T315I) [%]	inhibition at 10 µM (PACA-2) [%]	inhibition at 10 µM (MDA-MB-231) [%]	inhibition at 10 µM (NCI-H1299) [%]	inhibition at 10 µM (KATO III) [%]	inhibition at 10 µM (DLD-1) [%]	inhibition at 10 µM (PC-3) [%]
c1cnc2c(c1)-c1nc(NCCCN3CCCC3)ncc1-c1ccncc1N2 [Example 37, N-(3-pyrrolidin-1-ylpropyl)-9H-dipyrido[2,3-b:4′,3′-f]pyrimido[4,5-d]azepin-2-amine]	50 to 79	–	< 50	< 50	< 50	–	–	–
OCCc1cccc(Nc2ncc3c(n2)-c2cccnc2Nc2ccccc2-3)c1 [Example 67, 2-[3-(9H-pyrido[2,3-b]pyrimido[4,5-d][1]benzazepin-2-ylamino)phenyl]ethanol]	–	–	80 to 100	< 50	50 to 79	50 to 79	< 50	–
Cc1cnc(CNc2ncc3c(n2)-c2cccnc2Nc2cnccc2-3)cn1 [Example 6, N-[(5-methylpyrazin-2-yl)methyl]-9H-dipyrido[2,3-b:4′,3′-f]pyrimido[4,5-d]azepin-2-amine]	< 50	< 50	–	–	< 50	< 50	–	–
Fc1ccccc1CCNc1ncc2c(n1)-c1cccnc1Nc1cnccc1-2 [Example 43, N-[2-(2-fluorophenyl)ethyl]-9H-dipyrido[2,3-b:4′,3′-f]pyrimido[4,5-d]azepin-2-amine]	80 to 100	80 to 100	< 50	–	< 50	50 to 79	< 50	–
Clc1cccc(CNc2ncc3c(n2)-c2cccnc2Nc2ccccc2-3)c1 [Example 61, N-(3-chlorobenzyl)-9H-pyrido[2,3-b]pyrimido[4,5-d][1]benzazepin-2-amine]	–	–	–	< 50	< 50	< 50	< 50	< 50
Cc1cccc(CCNc2ncc3c(n2)-c2cccnc2Nc2cnccc2-3)c1 [Example 41, N-[2-(3-methylphenyl)ethyl]-9H-dipyrido[2,3-b:4′,3′-f]pyrimido[4,5-d]azepin-2-amine]	80 to 100	80 to 100	< 50	< 50	< 50	50 to 79	< 50	–
Clc1ccc(CCNc2ncc3c(n2)-c2cccnc2Nc2cnccc2-3)cc1 [Example 31, N-[2-(4-chlorophenyl)ethyl]-9H-dipyrido[2,3-b:4′,3′-f]pyrimido[4,5-d]azepin-2-amine]	80 to 100	80 to 100	< 50	–	< 50	80 to 100	50 to 79	–
Fc1ccc(CNc2ncc3c(n2)-c2cccnc2Nc2cnccc2-3)cc1Cl [Example 9, N-(3-chloro-4-fluorobenzyl)-9H-dipyrido[2,3-b:4′,3′-f]pyrimido[4,5-d]azepin-2-amine]	80 to 100	80 to 100	< 50	< 50	< 50	50 to 79	50 to 79	–
CCN(CC)CCCNc1ncc2c(n1)-c1cccnc1Nc1cnccc1-2 [Example 44, N′-9H-dipyrido[2,3-b:4′,3′-f]pyrimido[4,5-d]azepin-2-yl-N,N-diethylpropane-1,3-diamine]	< 50	–	< 50	< 50	< 50	80 to 100	< 50	–
c1ccc(CNc2ncc3c(n2)-c2cccnc2Nc2cnccc2-3)cc1 [Example 12, N-benzyl-9H-dipyrido[2,3-b:4′,3′-f]pyrimido[4,5-d]azepin-2-amine]	80 to 100	80 to 100	–	< 50	< 50	< 50	< 50	–
c1ccc(CCNc2ncc3c(n2)-c2cccnc2Nc2cnccc2-3)cc1 [Example 28, N-(2-phenylethyl)-9H-dipyrido[2,3-b:4′,3′-f]pyrimido[4,5-d]azepin-2-amine]	80 to 100	80 to 100	–	< 50	–	50 to 79	< 50	–
COc1ccc(CNc2ncc3c(n2)-c2cccnc2Nc2cnccc2-3)cc1OC [Example 47, N-(3,4-dimethoxybenzyl)-9H-dipyrido[2,3-b:4′,3′-f]pyrimido[4,5-d]azepin-2-amine]	80 to 100	80 to 100	< 50	< 50	50 to 79	< 50	50 to 79	–

More lines, main results first:

inhibition at 10 µM (ABL) [%]	inhibition at 10 µM (ABL T315I) [%]	Compound	inhibition at 10 µM (PACA-2) [%]	inhibition at 10 µM (MDA-MB-231) [%]	inhibition at 10 µM (NCI-H1299) [%]	inhibition at 10 µM (KATO III) [%]	inhibition at 10 µM (DLD-1) [%]	inhibition at 10 µM (PC-3) [%]
80 to 100	80 to 100	COc1cccc(CNc2ncc3c(n2)-c2cccnc2Nc2cnccc2-3)c1 [Example 32, N-(3-methoxybenzyl)-9H-dipyrido[2,3-b:4′,3′-f]pyrimido[4,5-d]azepin-2-amine]	< 50	< 50	50 to 79	< 50	50 to 79	–
80 to 100	80 to 100	Clc1cccc(CCNc2ncc3c(n2)-c2cccnc2Nc2cnccc2-3)c1 [Example 29, N-[2-(3-chlorophenyl)ethyl]-9H-dipyrido[2,3-b:4′,3′-f]pyrimido[4,5-d]azepin-2-amine]	< 50	< 50	–	80 to 100	< 50	–
80 to 100	80 to 100	Fc1ccccc1CNc1ncc2c(n1)-c1cccnc1Nc1cnccc1-2 [Example 20, N-(2-fluorobenzyl)-9H-dipyrido[2,3-b:4′,3′-f]pyrimido[4,5-d]azepin-2-amine]	< 50	< 50	< 50	< 50	< 50	–
80 to 100	80 to 100	Fc1ccc(CCNc2ncc3c(n2)-c2cccnc2Nc2cnccc2-3)cc1 [Example 19, N-[2-(4-fluorophenyl)ethyl]-9H-dipyrido[2,3-b:4′,3′-f]pyrimido[4,5-d]azepin-2-amine]	–	< 50	< 50	< 50	< 50	–
80 to 100	80 to 100	FC(F)(F)c1cccc(CNc2ncc3c(n2)-c2cccnc2Nc2cnccc2-3)c1 [Example 30, N-[3-(trifluoromethyl)benzyl]-9H-dipyrido[2,3-b:4′,3′-f]pyrimido[4,5-d]azepin-2-amine]	< 50	–	< 50	80 to 100	50 to 79	–
50 to 79	80 to 100	COc1cc(CNc2ncc3c(n2)-c2cccnc2Nc2cnccc2-3)cc(OC)c1 [Example 36, N-(3,5-dimethoxybenzyl)-9H-dipyrido[2,3-b:4′,3′-f]pyrimido[4,5-d]azepin-2-amine]	< 50	–	< 50	< 50	< 50	–
80 to 100	80 to 100	Cc1ccc(CCNc2ncc3c(n2)-c2cccnc2Nc2cnccc2-3)cc1 [Example 16, N-[2-(4-methylphenyl)ethyl]-9H-dipyrido[2,3-b:4′,3′-f]pyrimido[4,5-d]azepin-2-amine]	< 50	< 50	< 50	50 to 79	< 50	–
